The source of these data is patent EP1076558B1, “2-PHENYL-1-[-(2-AMINOETHOXY)-BENZYL -INDOLE IN COMBINATION WITH ESTROGENS” (Wyeth, priority 1998, dated 1999).

A word on the IC50: it is the concentration that gives 50% inhibition.

Where a name gives a salt, the structure may show the parent alone.

One assay deals with Ishikawa cells. In words: Ishikawa Cell Alkaline Phosphatase Assay. The conditions noted are these: Homo sapiens, Ishikawa; estrogenic activity by the alkaline phosphatase method; reference standards; read-out: ED50 values (95% C.I.). Type of assay: cell-based, human. Here is the method: Cells were treated for 48 h prior to assay. […] Sample population for at each dose was n=8. […] Plates are placed at -80°C for a minimum of 15 minutes. Plates are thawed at 37°C followed by the addition of 150μL of 0.1 M Tris-HCl, pH 9.8, containing 4 mM para-nitrophenylphosphate (pNPP) to each well (final concentration. 3 mM pNPP). Absorbance and slope calculations were made using the […] Application program (Bio-Tek Instruments, Inc., Winooski, VT). […] Various compounds were assayed for estrogenic activity by the alkaline phosphatase method and corresponding ED50 values (95% C.I.) were calculated. The four listed in the following were used as as reference standards: A description of these methods is described by Holinka, […]., Kuramoto, H. and Gurpide, E. (1986) Effects of steroid hormones and antisteroids on alkaline phosphatase activity in human endometrial cancer cells (Ishikawa Line). Cancer Research, 46:2771-2774, and by […]. and […] simple and sensitive microtiter plate estrogen bioassay based on stimulation alkaline phosphatase in Ishikawa cells; […] Endocrinology, 6:2757-2762.
Regarding `C[C@]12CC[C@@H]3c4ccc(O)cc4CC[C@H]3[C@@H]1C[C@@H](O)[C@@H]2O` [estriol], the EC50 was 0.13 nM.
`C[C@]12CC[C@@H]3c4ccc(O)cc4CC[C@H]3[C@@H]1CCC2=O` [estrone]: the EC50 is 0.36 nM.

The assay is the same for the next values; noted with them: estrogenic activity by the alkaline phosphatase method; reference standards; read-out: ED50 values (95% C.I.).
`C[C@]12CC[C@@H]3c4ccc(O)cc4CC[C@H]3[C@@H]1CC[C@H]2O` [17α-estradiol]: the EC50 turned out to be 1.42 nM.

A further assay has as its target T1, estrogen receptor (Homo sapiens, UniProt P03372).
T1 construct: expressed in transfected cells; host or cells: CHO cells (ribosome-free cytosol)
T1 sequence (P03372 1-595): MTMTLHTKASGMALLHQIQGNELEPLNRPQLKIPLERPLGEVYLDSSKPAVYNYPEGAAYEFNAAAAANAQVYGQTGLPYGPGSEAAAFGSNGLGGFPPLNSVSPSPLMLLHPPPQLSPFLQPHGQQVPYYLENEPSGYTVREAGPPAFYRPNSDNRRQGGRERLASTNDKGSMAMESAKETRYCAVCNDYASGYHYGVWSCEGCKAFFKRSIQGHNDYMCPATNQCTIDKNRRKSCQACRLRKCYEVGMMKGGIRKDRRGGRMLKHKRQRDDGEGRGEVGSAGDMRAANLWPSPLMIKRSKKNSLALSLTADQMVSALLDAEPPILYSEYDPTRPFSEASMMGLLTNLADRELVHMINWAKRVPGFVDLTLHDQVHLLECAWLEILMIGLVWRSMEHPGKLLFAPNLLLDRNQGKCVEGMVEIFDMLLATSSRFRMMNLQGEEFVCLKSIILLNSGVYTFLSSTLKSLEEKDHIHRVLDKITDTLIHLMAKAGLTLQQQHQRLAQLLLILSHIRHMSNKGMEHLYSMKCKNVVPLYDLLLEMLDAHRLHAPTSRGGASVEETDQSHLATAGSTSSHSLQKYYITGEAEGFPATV
Nature of the assay: In vitro estrogen receptor binding assay.
Settings: not given
Here is the method: CHO cells overexpressing the estrogen receptor were grown in 150 mm^2 dishes in DMEM + 10% dextran coated charcoal, stripped fetal bovine serum. The plates were washed twice with PBS and once with 10mM Tris-HCl, pH 7.4, 1mM EDTA. Cells were harvested by scraping the surface and then the cell suspension was placed on ice. Cells were disrupted with a hand-held motorized tissue grinder using two, 10-second bursts. […] The cytosol was then frozen and stored at -80°C. Protein concentration of the cytosol was estimated using the BCA assay with reference standard protein.
100uG/100uL of the receptor preparation was aliquoted per well. […] The plate was incubated at room temperature for 2.5 h. […] 200 uL of the supernatant solution was then removed for scintillation counting. Samples were counted to 2% or 10 minutes, whichever occurs first. […] Also, wells containing radioactivity but no cytosol were processed with charcoal to estimate unremovable DPM of [^3H]
Counts per minute (CPM) of radioactivity were automatically converted to disintegrated per minute (DPM) by the Beckman LS 7500 Scintillation Counter using a set of quenched standards to generate a H No. for each sample.
For the generation of IC50 curves, % binding is plotted vs compound. […] For a description of these methods, see Hulme, E.C., ed. […] Receptor-Ligand Interactions: A Practical Approach. IRL Press, New York.(see especially chapter 8).
`Cc1c(-c2ccc(O)cc2)n(Cc2ccc(OCCN(C(C)C)C(C)C)cc2)c2ccc(O)cc12` [Example No. 104, 1-[4-(2-Diisopropylamino-ethoxy)-benzyl]-2-(4-hydroxy-phenyl)-3-methyl-1H-indol-5-ol]: the IC50 is 100 nM.

Still in this assay, the particulars now being: competition with [3H]17β-estradiol; cytosol of CHO cells overexpressing the estrogen receptor; read-out: Receptor Binding IC50's.
On to `CCCCN(C)CCOc1ccc(Cn2c(-c3ccc(O)cc3)c(C)c3cc(O)ccc32)cc1` [Example No. 105], for which the IC50 worked out at 28 nM.
As to `Cc1c(-c2ccc(O)cc2)n(Cc2ccc(OCC[N+](C)(C)C)cc2)c2ccc(O)cc12` [Example No. 106, 2-(4-Hydroxy-phenyl)-3-methyl-1-[4-(2-dimethyl-1-yl-ethoxy)-benzyl]-1H-indol-5-ol methiodide], the IC50 stood at 100 nM.

The same assay, now with this note: read-out: Receptor Binding IC50's.
Consider `Cc1c(-c2ccc(O)cc2)n(Cc2ccc(OCCN3CC4(C)CC3CC(C)(C)C4)cc2)c2ccc(O)cc12` (centres unmarked) [Example No. 115, 2-(4-Hydroxy-phenyl)-3-methyl-1-{4-[2-(1,3,3-trimethyl-6-aza-bicyclo[3.2.1]oct-6-yl)-ethoxy]-benzyl}-1H-indol-5-ol], for which the IC50 turned out to be 150 nM.
Take `CCOc1ccc(-c2c(C)c3cc(O)ccc3n2Cc2ccc(OCCN3CCCCCC3)cc2)cc1` [Example No. 93, 1-[4-(2-Azepan-1-yl-ethoxy)-benzyl]-2-(4-ethoxy-phenyl)-3-methyl-1H-indol-5-ol]: the IC50 turned out to be 90 nM.
Turning to `CCCCN(CCCC)CCOc1ccc(Cn2c(-c3ccc(O)cc3)c(C)c3cc(O)ccc32)cc1` [Example No. 103, 1-[4-(2-Dibutylamino-ethoxy)-benzyl]-2-(4-hydroxy-phenyl)-3-methyl-1H-indol-5-ol], the IC50 is 200 nM.
On the same count and under the same terms, with `COc1ccc2c(c1)c(C)c(-c1ccc(O)cc1)n2Cc1ccc(OCCN2CCCCC2)cc1` [Example No. 88, 4-{5-Methoxy-3-methyl-1-{4-[2-(piperidin-1-yl)-ethoxy]-benzyl}-1H-indol-2-yl}-phenol] the figure was 350 nM.
As to `Cc1c(-c2ccccc2)n(Cc2ccc(OCCN3CCCCC3)cc2)c2ccccc12` [Example No. 85, 4-{3-Methyl-1-[4-(2-piperidin-1-yl-ethoxy)-benzyl]-1H-indole}], the IC50 was 450 nM.
Consider `Cc1c(-c2ccc(O)cc2)n(Cc2ccc(OCCN3CCCCC3)cc2)c2ccccc12` [Example No. 86, 4-{3-Methyl-1-[4-(2-piperidin-1-yl-ethoxy)-benzyl]-1H-indol-2-yl}-phenol hydrochloride], for which the IC50 was determined as 120 nM.
For `COc1ccc(-c2c(C)c3cc(OC)ccc3n2Cc2ccc(OCCN3CCCCC3)cc2)cc1` [Example No. 90, 5-Methoxy-2-(4-methoxy-phenyl)-3-methyl-1-{4-(2-piperidin-1-yl-ethoxy)-benzyl]-1H-indole], the IC50 turned out to be 600 nM.
Consider `Cc1c(-c2ccc(O)cc2)n(Cc2ccc(OCCN3CCC(O)CC3)cc2)c2ccc(O)cc12` [Example No. 113, 2-(4-Hydroxy-phenyl)-1-{4-[2-(4-hydroxy-piperidin-1-yl)-ethoxy]-benzyl}-3-methyl-1H-indol-5-ol], for which the IC50 is 47 nM.
Take `CCCN(CCC)CCOc1ccc(Cn2c(-c3ccc(O)cc3)c(C)c3cc(O)ccc32)cc1` [Example No. 102, 1-[4-(2-Dipropylamino-ethoxy)-benzyl]-2-(4-hydroxy-phenyl)-3-methyl-1H-indol-5-ol]: the IC50 worked out at 80 nM.
Same read-out and setting: for `Cc1c(-c2ccc(O)cc2)n(Cc2ccc(OCCN3C[C@@H]4CC[C@H]3C4)cc2)c2ccc(O)cc12` [Example No. 114, (1S,4R)-1-{4-[2-(2-Aza-bicyclo [2.2.1]hept-2-yl)-ethoxy]-benzyl}-2-(4-hydroxy-phenyl)-3-methyl-1H-indol-5-ol] the value was 1 nM.
For `Cc1c(-c2ccc(O)cc2)n(Cc2ccc(OCCN3CCCCC3C)cc2)c2ccc(O)cc12` (centres unmarked) [Example No. 108, 2-(4-Hydroxy-phenyl)-3-methyl-1-{4-[2-(2-methyl-piperidin-1-yl)-ethoxy]-benzyl}-1H-indol-5-ol], the IC50 amounted to 20 nM.
For the compound `CCOc1ccc(-c2c(C)c3cc(O)ccc3n2Cc2ccc(OCCN3CCCCC3)cc2)cc1` [Example No. 92, 2-(4-Ethoxv-phenyl)-3-methyl-1-[4-(2-piperidin-1-yl-ethoxy)-benzyl]-1H-indol-5-ol], the IC50 was 62 nM.
For `Cc1c(-c2ccc(F)cc2)n(Cc2ccc(OCCN3CCCCCC3)cc2)c2ccc(O)cc12` [Example No. 117, 1-[4-(2-Azepan-1-yl-ethoxy)-benzyl]-2-(4-fluoro-phenyl)-3-methyl-1H-indol-5-ol], the IC50 is 100 nM.
Take `Cc1c(-c2ccccc2)n(Cc2ccc(OCCN3CCCCC3)cc2)c2ccc(O)cc12` [Example No. 87, 3-Methyl-2-phenyl-1-[4-(2-piperidine-1-yl-ethoxy)-benzyl]-1H-indol-5-ol]: the IC50 came out at 30 nM.
`Cc1c(-c2ccc(F)cc2)n(Cc2ccc(OCCN3CCCCC3)cc2)c2ccc(O)cc12` [Example No. 116, 2-(4-Fluoro-phenyl)-3-methyl-1-[4-(2-piperidine-1-yl-ethoxy)-benzyl]-1H-indol-5-ol]: the IC50 was 40 nM.
With `Cc1c(-c2ccc3c(c2)OCO3)n(Cc2ccc(OCCN3CCCCC3)cc2)c2ccc(O)cc12` [Example No. 119, 2-Benzo[1,3]dioxol-5-yl-3-methyl-1-[4-(2-piperidin-1-yl-ethoxy)-benzyl]-1H-indol-5-ol], the IC50 turned out to be 70 nM.
As to `Cc1c(-c2ccc(O)cc2)n(Cc2ccc(OCCN3CCC(C)CC3)cc2)c2ccc(O)cc12` [Example No. 110, 2-(4-Hydroxy-phenyl)-3-methyl-1-{4-[2-(4-methyl-piperidin-1-yl)-ethoxy]-benzyl}-1H-indol-5-ol], the IC50 amounted to 37 nM.
On the same count and under the same terms, with `COc1ccc(-c2c(C)c3cc(O)ccc3n2Cc2ccc(OCCN3CCCCC3)cc2)cc1` [Example No. 89, 2-(4-methoxy-phenyl)-3-methyl-1-{4-[2-(piperidin-1-yl)-ethoxy]-benzyl}-1H-indol-5-ol] the figure was 300 nM.
On the same count and under the same terms, with `Cc1c(-c2ccc(O)cc2)n(Cc2ccc(OCCN3CCCCC3)cc2)c2ccc(F)cc12` [Example No. 94, 4-{5-Fluoro-3-methvl-1-[4-(2-piperidin-1-yl-ethoxy)-benzyl]-1H-indol-2-yl}-phenol] the figure was 200 nM; with `Cc1c(-c2ccc(O)cc2)n(Cc2ccc(OCCN3CCCC(C)(C)C3)cc2)c2ccc(O)cc12` [Example No. 111, 1-{4-[2-(3,3-Dimethyl-piperidin-1-yl)-ethoxy]-benzyl}-2-(4-hydroxy-phenyl)-3-methyl-1H-indol-5-ol], 150 nM.
